Paper PMC7344389, “Discovery of Anti-Amoebic Inhibitors from Screening the MMV Pandemic Response Box on Balamuthia mandrillaris, Naegleria fowleri, and Acanthamoeba castellanii” (Pathogens, 2020)

System: Acanthamoeba castellanii trophozoites
Experiment: CellTiter-Glo 2.0 trophocidal assay, A. castellanii
Format: cell-based
Settings: for IC50: 72 h, CTG method, duplicate twofold serial dilutions from 10 µM, mean ± SD; for Selectivity Index (A549 IC50/A. castellanii IC50): SI = (IC50 A549)/(IC50 Amoeba); for potency against A. castellanii, in words: dose-response, CTG
Method: This isolate was also purchased from ATCC. Trophozoites were routinely grown axenically at 27 °C in Protease Peptone-Glucose Media (PG) in non-vented 75 cm^2 tissue culture flasks (Olympus, El Cajon, CA, USA), until the cells were 80–90% confluent. For sub-culturing, cells were mechanically harvested to detach the cells from the culture flasks. The cells were collected by centrifugation at 4000 rpm at 4 °C.
The trophocidal activity of compounds was assessed using the CellTiter-Glo 2.0 luminescent viability assay (Promega, Madison, WI, USA), as previously described. Trophozoites were routinely cultured as described above and only logarithmic trophozoites were used. […] Initially all compounds were assessed in a single-point drug screen at 10 and 1 μM, as previously described. […] We used this process to reduce the number of potential false positives. Drugs were cherry-picked, dissolved in the media specific to each parasite, and assessed in twofold serial dilutions from the highest concentration of 10 μM. All assays were incubated at each of the parasites’ representative growth temperatures, described above, for 72 h. At the 72 h time point, 25 μL of CellTiter-Glo 2.0 reagent was added to all wells of the 96-well plates using the Biomek NX^P automated workstation. The plates were protected from light and contents were mixed using an orbital shaker at 300 rpm at room temperature for 2 min to induce cell lysis. After shaking, the plates were equilibrated at room temperature for 10 min to stabilize the luminescent signal. The adenosine triphosphate (ATP) luminescent signal (relative light units; RLUs) was measured at 490 nm with a SpectraMax I3X plate reader (Molecular Devices, Sunnyvale, CA, USA). Drug inhibitory concentration (IC50) curves were generated using total ATP RLUs, where controls were calculated as the average of replicates using the Levenberg–Marquardt algorithm, using DMSO as the normalization control, as defined in Collaborative Drug Discovery Inc. (CDD) Vault (Burlingame, CA, USA). Values reported are from a minimum of two biological replicates with standard deviations.

SMILES | IC50 (Acanthamoeba castellanii) [µM] | Selectivity Index (A549 IC50/A. castellanii IC50) | Selectivity Index (A549 IC50/A. castellanii IC50) (listed as ravuconazole) | potency against A. castellanii, in words | Selectivity Index (A549 IC50/A. castellanii IC50) (listed as terbinafine) | IC50 [µM] | IC50 (listed as butenafine) [µM]
C[C@@H](c1nc(-c2ccc(C#N)cc2)cs1)[C@](O)(Cn1cncn1)c1ccc(F)cc1F [Ravuconazole] | 0.02 ± 0.01 | ≥625 | ≥ 10 | nanomolar potency |  |  | 
CN(C/C=C/C#CC(C)(C)C)Cc1cccc2ccccc12 [Terbinafine] | 0.56 ± 0.28 | ≥18 |  | nanomolar potency | ≥ 10 |  | 
Cc1[nH]c2ccccc2c1CCNCc1ccc(/C=C/C(=O)NO)cc1 [Panobinostat] | > 10 |  |  |  |  |  | 
CN(Cc1ccc(C(C)(C)C)cc1)Cc1cccc2ccccc12 [Butenafine] |  | ≥5.08 |  |  |  | 1.97 ± 1.76 | ≤ 10
CC(=O)Oc1ccccc1C(=O)Nc1ncc([N+](=O)[O-])s1 [Nitazoxanide] | > 10 |  |  |  |  |  | 
